# According to US8829007B2 (priority 2009, dated 2014):
# Read-outs that look alike come from different tables or passages of the source.
# Assays:
# [1] = system: influenza A virus (A/PR/8/34); assay: microbe, parasite or virus in culture; type: cell-based
# [2] = system: A/PR/8/34 influenza virus; assay: microbe, parasite or virus in culture; type: cell-based
# [3] = Influenza A virus, PR/8, MDCK, CPE assay, A/PR/8/34 infected MDCK cells, class symbols, read-out: IC50 (mean all)
# [4] = Influenza A virus, PR/8, MDCK, bDNA assay, A/PR/8/34 influenza virus replication in MDCK cells, class symbols, read-out: EC50 (mean all)
# [5] = Influenza A virus, PR/8, MDCK, MDCK cells infected with A/PR/8/34, survival of infected cells, class symbols, read-out: IC50 (mean all)
# [6] = Influenza A virus, PR/8, MDCK, MDCK cells infected with A/PR/8/34, replication of influenza virus (viral RNA, bDNA), class symbols, read-out: EC50 (mean all)
# [7] = mean all, MDCK cells infected with A/PR/8/34, cell protection (CPE), read-out: IC50
# [8] = mean all, bDNA viral RNA in MDCK cells infected with A/PR/8/34, read-out: EC50
# [9] = Influenza A virus, PR/8, MDCK, mean all, A/PR/8/34 infected MDCK cells, CPE assay, read-out: IC50
# [10] = Influenza A virus, PR/8, MDCK, mean all, A/PR/8/34 influenza virus in MDCK cells, bDNA assay, read-out: EC50
# [11] = CPE assay, A/PR/8/34 infected MDCK cells, class symbols, read-out: IC50 (mean all)
# [12] = bDNA assay, A/PR/8/34 influenza virus replication in MDCK cells, class symbols, read-out: EC50 (mean all)
# [13] = Influenza A virus, PR/8, MDCK, MDCK cells infected with A/PR/8/34, cell protection (CPE), read-out: IC50 (mean all)
# [14] = Influenza A virus, PR/8, MDCK, MDCK cells infected with A/PR/8/34, bDNA viral RNA, read-out: EC50 (mean all)
# [15] = Influenza A virus, PR/8, MDCK, MDCK cells, A/PR/8/34, ATP readout, mean all, read-out: Cell Flu, MDCK protection, ATP (All: IC50: uM)(Mean (All))
# [16] = Influenza A virus, PR/8, 30 h, HA(−) 30 hr, A/PR/8, bDNA, mean all, read-out: Cell Influenza HA(−) 30 hr A/PR/8 bDNA:bDNA EC50 uM(Mean (All))
structure (smiles),measurement,setting,value
O=C(N[C@@H]1CCC[C@H](Nc2nc(-c3c[nH]c4ncc(Cl)cc34)ncc2F)C1)N1CCOCC1 [Compound 647],IC50,[1]; [3],< 5 µM
same,EC50,[2]; [4],< 5 µM
"CC1(O)CCCCC1Nc1nc(-c2c[nH]c3ncc(Cl)cc23)ncc1F (centres unmarked) [Compound 562, 2-(2-(5-chloro-1H-pyrrolo[2,3-b]pyridin-3-yl)-5-fluoropyrimidin-4-ylamino)-1-methylcyclohexanol]",IC50,[1]; [5],> 10 µM
same,EC50,[2]; [6],< 5 µM
N#CC1(C(=O)N[C@@H]2CCC[C@H](Nc3nc(-c4c[nH]c5ncc(F)cc45)ncc3F)C2)CC1 [Compound 871],IC50,"[1]; Influenza A virus, PR/8, MDCK, mean all, A/PR/8/34 infected MDCK cells, cell protection (CPE), read-out: IC50",< 5 µM
same,EC50,"[2]; Influenza A virus, PR/8, mean all, A/PR/8/34 influenza virus replication, bDNA, read-out: EC50",< 5 µM
COCC(=O)NC1CCCC(Nc2nc(-c3c[nH]c4ncc(F)cc34)ncc2F)C1 (centres unmarked) [Compound 703],IC50,[1]; [7],< 5 µM
same,EC50,[2]; [8],< 5 µM
CCCOC(=O)NC1CCCC(Nc2nc(-c3c[nH]c4ncc(Cl)cc34)ncc2F)C1 (centres unmarked) [Compound 698],IC50,[1]; [7],< 5 µM
same,EC50,[2]; [8],< 5 µM
"CCS(=O)(=O)N1CCC[C@H](Nc2nc(-c3c[nH]c4ncc(Cl)cc34)ncc2F)C1 [Compound 393, (S)-2-(5-chloro-1H-pyrrolo[2,3-b]pyridin-3-yl)-N-(1-(ethylsulfonyl)piperidin-3-yl)-5-fluoropyrimidin-4-amine]",IC50,[1]; [9],< 5 µM
same,EC50,[2]; [10],< 5 µM
C=CC1(O)CCCC(Nc2nc(-c3c[nH]c4ncc(Cl)cc34)ncc2F)C1 (centres unmarked) [Compound 627],IC50,[1]; [11],< 5 µM
same,EC50,[2]; [12],< 5 µM
"O[C@@H]1CCCC[C@@H]1Nc1nc(-c2c[nH]c3ncccc23)ncc1F (relative stereo) [Compound 277, Cis-2-[[5-fluoro-2-(1H-pyrrolo[2,3-b]pyridin-3-yl)pyrimidin-4-yl]amino]cyclohexanol]",IC50,[1]; [13],< 5 µM
same,EC50,[2]; [14],< 5 µM
"O=C1CC[C@H](C(=O)N2CCC[C@@H](CNc3nc(-c4c[nH]c5ncc(Cl)cc45)ncc3F)C2)O1 [Compound 51, (R)-5-((S)-3-((2-(5-chloro-1H-pyrrolo[2,3-b]pyridin-3-yl)-5-fluoropyrimidin-4-ylamino)methyl)piperidine-1-carbonyl)dihydrofuran-2(3H)-one]",IC50,[1]; [13],< 5 µM
same,EC50,[2]; [14],< 5 µM
O[C@H]1[C@H](O)CCCC[C@@H]1Nc1nc(-c2c[nH]c3ncc(F)cc23)ncc1F [Compound 984],IC50,[1]; [15],< 5 µM
same,EC50,[2]; [16],< 5 µM
O=C(O)C1CCC(Nc2nc(-c3c[nH]c4ncc(Cl)cc34)ncc2F)CC1 (centres unmarked) [Compound 731],IC50,[1]; [7],> 10 µM
same,EC50,[2]; [8],> 3.3 µM
"CCS(=O)(=O)N1CCCC[C@@H]1CNc1nc(-c2c[nH]c3ncc(Cl)cc23)ncc1F [Compound 382, (R)-2-(5-chloro-1H-pyrrolo[2,3-b]pyridin-3-yl)-5-fluoro-N-((1-(ethylsulfonyl)-piperidin-2-yl)methyl)pyrimidin-4-amine]",IC50,[1]; [9],< 5 µM
same,EC50,[2]; [10],< 5 µM
CCCCS(=O)(=O)N1CCCC(Nc2ccnc(-c3c[nH]c4ncc(Cl)cc34)n2)C1 (centres unmarked) [Compound 419],IC50,"[1]; mean all, A/PR/8/34 infected MDCK cells, CPE assay, read-out: IC50",< 5 µM
same,EC50,"[2]; mean all, A/PR/8/34 influenza virus in MDCK cells, bDNA assay, read-out: EC50",< 5 µM
Cc1ccc(S(=O)(=O)n2cc(-c3ncc(F)c(N[C@H]4CCCC(C)(O)C4)n3)c3cc(Cl)cnc32)cc1 (some centres unmarked) [Compound 656],IC50,[1]; [11],< 5 µM
same,EC50,[2]; [12],< 5 µM
O=C1CCCN1[C@@H]1CCC[C@H](Nc2nc(-c3c[nH]c4ncc(Cl)cc34)ncc2F)C1 [Compound 956],IC50,"[1]; Influenza A virus, PR/8, MDCK, mean all, survival of A/PR/8/34 infected MDCK cells (CPE assay), read-out: IC50",< 5 µM
same,EC50,"[2]; Influenza A virus, PR/8, mean all, replication of A/PR/8/34 influenza virus (bDNA assay), read-out: EC50",< 5 µM
"OCC(O)CN1CCCC(Nc2nc(-c3c[nH]c4ncc(Cl)cc34)ncc2F)C1 [Compound 525, 3-((S)-3-((2-(5-chloro-1H-pyrrolo[2,3-b]pyridin-3-yl)-5-fluoropyrimidin-4-ylamino)piperidin-1-yl)propane-1,2-diol]",IC50,[1]; [5],< 5 µM
same,EC50,[2]; [6],< 5 µM
"CN(C)C(=O)[C@@H]1CCCC[C@@H]1Nc1nc(-c2c[nH]c3ncc(Cl)cc23)ncc1F (relative stereo) [Compound 543, Cis-2-(2-(5-chloro-1H-pyrrolo[2,3-b]pyridin-3-yl)-5-fluoropyrimidin-4-ylamino)-N,N-dimethylcyclohexanecarboxamide]",IC50,[1]; [5],< 5 µM
same,EC50,[2]; [6],< 5 µM
"COC(=O)N1CCC[C@@H](CNc2nc(-c3c[nH]c4ncc(Cl)cc34)ncc2F)C1 [Compound 23, (S)-methyl 3-((2-(5-chloro-1H-pyrrolo[2,3-b]pyridin-3-yl)-5-fluoropyrimidin-4-ylamino)methyl)piperidine-1-carboxylate]",IC50,[1]; [13],< 5 µM
same,EC50,[2]; [14],< 5 µM
"O=C(O)[C@@H]1CCC[C@@H]1Nc1nc(-c2c[nH]c3ncc(Cl)cc23)ncc1F (relative stereo) [Compound 558, Cis-2-(2-(5-chloro-1H-pyrrolo[2,3-b]pyridin-3-yl)-5-fluoropyrimidin-4-ylamino)cyclopentanecarboxylic acid]",IC50,[1]; [5],< 5 µM
same,EC50,[2]; [6],< 5 µM
"O=C(C1CCCC1)N1CCC[C@H](CNc2nc(-c3c[nH]c4ncc(Cl)cc34)ncc2F)C1 [Compound 99, (R)-(3-((2-(5-chloro-1H-pyrrolo[2,3-b]pyridin-3-yl)-5-fluoropyrimidin-4-ylamino)methyl)piperidin-1-yl)(cyclopentyl)methanone]",IC50,[1]; [13],< 5 µM
same,EC50,[2]; [14],< 5 µM
"O=C(Nc1cccs1)N1CCC[C@H](CNc2nc(-c3c[nH]c4ncc(Cl)cc34)ncc2F)C1 [Compound 129, (R)-3-((2-(5-chloro-1H-pyrrolo[2,3-b]pyridin-3-yl)-5-fluoropyrimidin-4-ylamino)methyl)-N-(thiophen-2-yl)piperidine-1-carboxamide]",IC50,[1]; [13],< 5 µM
same,EC50,[2]; [14],< 5 µM
O=C(O)[C@H]1CC[C@@H](Nc2nc(-c3c[nH]c4ncc(Cl)cc34)ncc2F)C1 [Compound 565],IC50,[1]; [5],5 to 20 µM
same,EC50,[2]; [6],< 5 µM
"CC(C)(CC(=O)O)CC(=O)N1CCC[C@H](CNc2nc(-c3c[nH]c4ncc(Cl)cc34)ncc2F)C1 [Compound 80, (R)-5-(3-((2-(5-chloro-1H-pyrrolo[2,3-b]pyridin-3-yl)-5-fluoropyrimidin-4-ylamino)methyl)piperidin-1-yl)-3,3-dimethyl-5-oxopentanoic acid]",IC50,[1]; [13],< 5 µM
same,EC50,[2]; [14],< 5 µM
"O=C(O[C@H]1CCC[C@@H](Nc2nc(-c3c[nH]c4ncc(F)cc34)ncc2F)C1)N1CC[C@H](F)C1 [Compound 1151, (S)-(1S,3R)-3-((5-fluoro-2-(5-fluoro-1H-pyrrolo[2,3-b]pyridin-3-yl)-pyrimidin-4-yl)amino)cyclohexyl 3-fluoropyrrolidine-1-carboxylate]",IC50,[1]; [15],< 5 µM
same,EC50,[2]; [16],< 5 µM
O=C(NC1CCCC(Nc2nc(-c3c[nH]c4ncc(Cl)cc34)ncc2F)C1)C1CCC1 (centres unmarked) [Compound 726],IC50,[1]; [7],< 5 µM
same,EC50,[2]; [8],< 5 µM
"CCOC(=O)[C@H]1CCCC[C@@H]1Nc1nc(-c2c[nH]c3ncc(Cl)cc23)ncc1F [Compound 561, (1S,2S)-ethyl 2-(2-(5-chloro-1H-pyrrolo[2,3-b]pyridin-3-yl)-5-fluoropyrimidin-4-ylamino)cyclohexanecarboxylate]",IC50,[1]; [5],5 to 20 µM
same,EC50,[2]; [6],< 5 µM
CC1(C)CCC[C@H](Nc2nc(-c3c[nH]c4ncc(Cl)cc34)ncc2F)C(=O)N1 [Compound 504],IC50,[1]; [5],5 to 20 µM
same,EC50,[2]; [6],< 5 µM
"O=C(O)[C@H]1C2CCC(CC2)[C@@H]1Nc1nc(-c2c[nH]c3ncc(Cl)cc23)ncc1F [Compound 1184, (2S,3S)-3-((2-(5-chloro-1H-pyrrolo[2,3-b]pyridin-3-yl)-5-fluoropyrimidin-4-yl)amino)bicyclo[2.2.2]octane-2-carboxylic acid]",IC50,[1]; [15],< 5 µM
same,EC50,[2]; [16],< 5 µM
OCC1(O)CCCC(Nc2nc(-c3c[nH]c4ncc(Cl)cc34)ncc2F)C1 (centres unmarked) [Compound 646],IC50,[1]; [3],< 5 µM
same,EC50,[2]; [4],< 5 µM
"CC(=O)N[C@H]1CCCC[C@@H]1Nc1nc(-c2c[nH]c3ncc(Cl)cc23)ncc1F [Compound 433, N-[(1s, 2S)-2-[[2-(5-chloro-1H-pyrrolo[2,3-b]pyridin-3-yl)-5-fluoro-pyrimidin-4-yl]amino]cyclohexyl]acetamide]",IC50,[1]; [9],< 5 µM
same,EC50,[2]; [10],< 5 µM
"O=C(c1ccc(F)cc1F)N1CCC[C@H](CNc2nc(-c3c[nH]c4ncc(Cl)cc34)ncc2F)C1 [Compound 152, (R)-(3-((2-(5-chloro-1H-pyrrolo[2,3-b]pyridin-3-yl)-5-fluoropyrimidin-4-ylamino)methyl)piperidin-1-yl)(2,4-difluorophenyl)methanone]",IC50,[1]; [13],< 5 µM
same,EC50,[2]; [14],< 5 µM
